Data on 54 compounds can be found in ChEMBL document CHEMBL1133257, “Quinolones as gonadotropin releasing hormone (GnRH) antagonists: simultaneous optimization of the C(3)-aryl and C(6)-substituents” (Bioorg Med Chem Lett, 2000).

The target of experiment [1] is T1, Gonadotropin-releasing hormone receptor (Rattus norvegicus, UniProt P30969).
T1 sequence (P30969 whole entry): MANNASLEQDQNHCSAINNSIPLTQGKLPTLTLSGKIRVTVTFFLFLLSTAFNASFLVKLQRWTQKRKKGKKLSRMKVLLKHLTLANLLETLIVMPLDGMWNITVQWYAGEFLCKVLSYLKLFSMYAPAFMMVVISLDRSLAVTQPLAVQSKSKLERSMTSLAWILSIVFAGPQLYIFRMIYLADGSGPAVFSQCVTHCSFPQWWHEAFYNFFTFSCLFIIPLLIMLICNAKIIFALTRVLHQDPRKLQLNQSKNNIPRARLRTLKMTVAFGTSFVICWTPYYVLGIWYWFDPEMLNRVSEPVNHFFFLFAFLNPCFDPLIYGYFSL
As to the kind of experiment: Binding affinity to Gonadotropin-releasing hormone receptor (GnRHr) in rat pituitary cells.

Experiment [2] concerns the target T1, Gonadotropin-releasing hormone receptor. As to the kind of experiment: Compound was evaluated for its antagonism in rat primary pituitary cell assay (rLH). Type of experiment: functional, cell-based, Pituitary gland cell.
In experiment [3] the target is T2, Gonadotropin-releasing hormone receptor (Homo sapiens, UniProt P30968).
T2 sequence (P30968 whole entry): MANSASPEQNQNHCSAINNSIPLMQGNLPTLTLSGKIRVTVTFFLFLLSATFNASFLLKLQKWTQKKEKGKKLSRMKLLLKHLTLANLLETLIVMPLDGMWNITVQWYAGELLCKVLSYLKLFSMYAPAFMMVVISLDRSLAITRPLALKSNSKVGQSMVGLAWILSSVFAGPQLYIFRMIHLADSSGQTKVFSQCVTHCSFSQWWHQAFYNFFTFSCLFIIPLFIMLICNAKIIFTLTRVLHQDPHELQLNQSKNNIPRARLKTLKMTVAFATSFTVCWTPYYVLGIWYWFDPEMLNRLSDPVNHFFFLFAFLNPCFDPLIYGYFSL
As to the kind of experiment: Inhibition of recombinant human Gonadotropin-releasing hormone receptor.

Experiment [4] addresses T1, Gonadotropin-releasing hormone receptor. As to the kind of experiment: Compound was evaluated for its inhibitory activity against rat pituitary Gonadotropin-releasing hormone receptor.
Experiment [5] can be described thus: Compound was evaluated for its antagonism in CHO cells expressing the human receptor (hPI). The experiment is classed as functional, cell-based.

“And” between values parts separate entries of the source, which are not always exact repeats. Equal entries are not always repeated.

By IC50 is commonly meant the concentration that inhibits the measured activity by half. Turning to `O=c1[nH]c2cc(Cl)c([N+](=O)[O-])cc2c(OCCC2CCCCN2)c1-c1ccccc1Cl` (stereo not drawn), in experiment [1], the IC50 amounted to 360 nM.
As to `Cc1cc(CC(N)=O)cc(-c2c(O)nc3cc(Cl)c([N+](=O)[O-])cc3c2OCCC2CCCCN2)c1` (stereo not drawn), the IC50 in experiment [1] was 71 nM.
Regarding `Cc1cc(C)cc(-c2c(O)nc3cc(Cl)c(NC(=O)Nc4ccccn4)cc3c2OCCC2CCCCN2)c1` (stereo not drawn), the figures for the IC50 in experiment [1] and in experiment [2] were 15 nM and 463 nM, respectively.
In turn, `Cc1cc(C)cc(-c2c(O)nc3cc(Cl)c(NC(=O)Nc4ncccn4)cc3c2OCCC2CCCCN2)c1` (stereo not drawn) showed an IC50 in experiment [1] of 6 nM.
Turning to `Cc1cc(C)cc(-c2c(O)nc3cc(Cl)c(NC(=O)c4cnccn4)cc3c2OCCC2CCCCN2)c1` (stereo not drawn), the IC50 in experiment [1] was 1.8 nM; in experiment [2] it was 1920 nM; in experiment [3] it was 10 nM.
On to `O=[N+]([O-])c1cc2c(OCCC3CCCCN3)c(-c3ccc(Cl)c(Cl)c3)c(O)nc2cc1Cl` (stereo not drawn), for which the IC50 in experiment [1] is 29 nM.
Still for that read-out and setting: under `COc1ccc(-c2c(O)nc3cc(Cl)c([N+](=O)[O-])cc3c2OCCC2CCCCN2)cc1OC` (stereo not drawn) stands 600 nM.
On the same count and under the same terms, under `O=c1[nH]c2cc(Cl)c([N+](=O)[O-])cc2c(OCCC2CCCCN2)c1-c1cc(C(F)(F)F)cc(C(F)(F)F)c1` (stereo not drawn) stands 71 nM.
Regarding `Cc1cc(C)cc(-c2c(O)nc3cc(Cl)c(NC(=O)NC4CC4)cc3c2OCCC2CCCCN2)c1` (stereo not drawn), the IC50 is 0.8 nM in experiment [1]; 375 nM and 682 nM in experiment [2]; 1.1 nM in experiment [4]; 12 nM and 5 nM in experiment [5].
As to `Cc1ccc(-c2c(OCCC3CCCCN3)c3cc([N+](=O)[O-])c(Cl)cc3[nH]c2=O)cc1C` (stereo not drawn), in experiment [1], the IC50 was found to be 18 nM.
Take `Cc1cc(C)cc(-c2c(OCCC3CCCCN3)c3cc(NC(=O)Nc4ccccc4)c(Cl)cc3[nH]c2=O)c1` (stereo not drawn): the IC50 is 10 nM in experiment [1] and 3300 nM in experiment [2].
For `Cc1cc(C)cc(-c2c(OCC[C@@H]3CCCCN3)c3cc(NC(=O)NC4CC4)c(Cl)cc3[nH]c2=O)c1`, the IC50 in experiment [3] was determined as 2.3 nM.
In turn, `O=c1[nH]c2cc(Cl)c([N+](=O)[O-])cc2c(OCCC2CCCCN2)c1-c1ccsc1` (stereo not drawn) returned an IC50 in experiment [1] of 900 nM.
The same measure, in the same setting: the figure for `Cc1cc(CC#N)cc(-c2c(O)nc3cc(Cl)c([N+](=O)[O-])cc3c2OCCC2CCCCN2)c1` (stereo not drawn) is 18 nM.
Still for that read-out and setting: under `O=[N+]([O-])c1cc2c(OCCC3CCCCN3)c(-c3cccc(F)c3)c(O)nc2cc1Cl` (stereo not drawn) stands 53 nM; under `O=c1[nH]c2cc(Cl)c([N+](=O)[O-])cc2c(OCCC2CCCCN2)c1-c1cc(Cl)cc(Cl)c1` (stereo not drawn), 24 nM.
Same read-out and setting: under `CC(C)(C)c1ccc(-c2c(OCCC3CCCCN3)c3cc([N+](=O)[O-])c(Cl)cc3[nH]c2=O)cc1` (stereo not drawn) stands 200 nM; under `O=c1[nH]c2cc(Cl)c([N+](=O)[O-])cc2c(OCCC2CCCCN2)c1-c1ccc(Cl)s1` (stereo not drawn), 23 nM.
As to `Cc1cc(C)cc(-c2c(OCC[C@@H]3CCCCN3)c3cc(NC(=O)Nc4cnccn4)c(Cl)cc3[nH]c2=O)c1`, in experiment [3], the IC50 was found to be 1.1 nM.
`Cc1cc(C)cc(-c2c(O)nc3cc(Cl)c(NC(=O)Nc4cncnc4)cc3c2OCC[C@@H]2CCCCN2)c1`: the IC50 in experiment [3] is 57 nM; in experiment [5] it was 897 nM.
In experiment [1], `O=[N+]([O-])c1cccc(-c2c(O)nc3cc(Cl)c([N+](=O)[O-])cc3c2OCCC2CCCCN2)c1` (stereo not drawn) had an IC50 of 100 nM.
With `Cc1cc(C)cc(-c2c(O)nc3cc(Cl)c(CC(=O)Nc4ccncn4)cc3c2OCCC2CCCCN2)c1` (stereo not drawn), the IC50 was 7.9 nM in experiment [1], 2500 nM in experiment [2] and 227 nM in experiment [5].
`Cc1cccc(-c2c(O)nc3cc(Cl)c([N+](=O)[O-])cc3c2OCCC2CCCCN2)c1` (stereo not drawn): in experiment [1], the IC50 is 27 nM.
In experiment [1], `O=C(Nc1cc2c(OCCC3CCCCN3)c(-c3ccc4ccccc4c3)c(=O)[nH]c2cc1Cl)NC1CC1` (stereo not drawn) returned an IC50 of 68 nM.
`O=C(Nc1ccncn1)c1cc2c(OCC[C@@H]3CCCCN3)c(-c3ccc(Cl)c(Cl)c3)c(O)nc2cc1Cl`: the IC50 was found to be 1 nM in experiment [3] and 7.7 nM in experiment [5].
In turn, `O=[N+]([O-])c1cc2c(OCCC3CCCCN3)c(-c3cccc(Br)c3)c(O)nc2cc1Cl` (stereo not drawn) showed an IC50 in experiment [1] of 40 nM.
Still for that read-out and setting: under `O=C(Nc1cc2c(OCCC3CCCCN3)c(-c3ccc(Cl)c(Cl)c3)c(O)nc2cc1Cl)NC1CC1` (stereo not drawn) stands 18 nM.
As to `COc1ccc(-c2c(OCCC3CCCCN3)c3cc([N+](=O)[O-])c(Cl)cc3[nH]c2=O)cc1C` (stereo not drawn), the IC50 in experiment [1] amounted to 40 nM.
Consider `O=C(Nc1ccncn1)c1cc2c(OCC[C@@H]3CCCCN3)c(-c3cc(Cl)cc(Cl)c3)c(O)nc2cc1Cl`, for which the IC50 in experiment [3] turned out to be 1.1 nM; in experiment [5], 8.5 nM.
Consider `O=c1[nH]c2cc(Cl)c([N+](=O)[O-])cc2c(OCCC2CCCCN2)c1-c1cccc(Cl)c1` (stereo not drawn), for which, in experiment [1], the IC50 came out at 40 nM.
In the case of `Cc1cc(C)cc(-c2c(O)nc3cc(Cl)c(NC(=O)c4cnccn4)cc3c2OCC[C@@H]2CCCCN2)c1`, the IC50 in experiment [3] stood at 2 nM; in experiment [5], 23 nM.
The compound `Cc1ccc(-c2c(O)nc3cc(Cl)c([N+](=O)[O-])cc3c2OCCC2CCCCN2)c(C)c1` (stereo not drawn) displayed an IC50 in experiment [1] of 400 nM.
Still for that read-out and setting: the figure for `O=c1[nH]c2cc(Cl)c([N+](=O)[O-])cc2c(OCCC2CCCCN2)c1-c1ccccc1` (stereo not drawn) is 410 nM.
Still for that read-out and setting: under `O=C(Nc1cc2c(OCCC3CCCCN3)c(-c3cccc(Br)c3)c(=O)[nH]c2cc1Cl)NC1CC1` (stereo not drawn) stands 6 nM; under `CCN(CC)Cc1cc(C)cc(-c2c(OCCC3CCCCN3)c3cc([N+](=O)[O-])c(Cl)cc3[nH]c2=O)c1` (stereo not drawn), 270 nM; under `O=c1[nH]c2cc(Cl)c([N+](=O)[O-])cc2c(OCCC2CCCCN2)c1-c1ccc2ccccc2c1` (stereo not drawn), 53 nM.
As to `Cc1cc(C)cc(-c2c(OCC[C@@H]3CCCCN3)c3cc(NC(=O)Nc4ccncn4)c(Cl)cc3[nH]c2=O)c1`, the IC50 in experiment [3] was found to be 1.8 nM.
On to `Cc1cc(-c2c(O)nc3cc(Cl)c(C(=O)Nc4ccncn4)cc3c2OCC[C@@H]2CCCCN2)ccc1I`, for which the IC50 came to 0.5 nM in experiment [3] and 7.1 nM in experiment [5].
For `Cc1cc(-c2c(O)nc3cc(Cl)c(C(=O)Nc4ccncn4)cc3c2OCC[C@@H]2CCCCN2)cc(C)c1C`, in that order: 0.3 nM and 2.2 nM.
The like results for `O=C(Nc1ccncn1)c1cc2c(OCC[C@@H]3CCCCN3)c(-c3ccc(Cl)s3)c(O)nc2cc1Cl` were, in that order, 3.9 nM and 53 nM.
As to `Cc1cc(C)cc(-c2c(O)nc3cc(Cl)c(NC(=O)Nc4cccnc4)cc3c2OCCC2CCCCN2)c1` (stereo not drawn), the IC50 in experiment [1] is 20 nM; in experiment [2], 1300 nM.
For `O=C(Nc1ccncn1)c1cc2c(OCC[C@@H]3CCCCN3)c(-c3ccc4c(c3)CCC4)c(O)nc2cc1Cl`, the IC50 was 0.7 nM in experiment [3] and 16 nM in experiment [5].
Compound `O=c1[nH]c2cc(Cl)c([N+](=O)[O-])cc2c(OCCC2CCCCN2)c1-c1ccc(Cl)cc1` (stereo not drawn) registered an IC50 in experiment [1] of 160 nM.
Still for that read-out and setting: the figure for `O=c1[nH]c2cc(Cl)c([N+](=O)[O-])cc2c(OCCC2CCCCN2)c1-c1cccs1` (stereo not drawn) is 220 nM; for `O=[N+]([O-])c1cc2c(OCCC3CCCCN3)c(-c3ccc(-c4ccccc4)c(Cl)c3)c(O)nc2cc1Cl` (stereo not drawn) it is 900 nM.
The same measure, in the same setting: under `CC(=O)OCc1cc(C)cc(-c2c(O)nc3cc(Cl)c([N+](=O)[O-])cc3c2OCCC2CCCCN2)c1` (stereo not drawn) stands 45 nM.
For the compound `Cc1ccc(-c2c(O)nc3cc(Cl)c(C(=O)Nc4ccncn4)cc3c2OCC[C@@H]2CCCCN2)cc1C`, the IC50 in experiment [3] was 0.7 nM; in experiment [5], 6.5 nM.
For the compound `Cc1cc(-c2c(O)nc3cc(Cl)c([N+](=O)[O-])cc3c2OCCC2CCCCN2)cc(C(C)O)c1` (stereo not drawn), the IC50 in experiment [1] was 63 nM.
On to `Cc1cc(C)cc(-c2c(O)nc3cc(Cl)c(NC(=O)c4cncnc4)cc3c2OCC[C@@H]2CCCCN2)c1`, for which the IC50 in experiment [1] was 25 nM; in experiment [5], 225 nM.
For `Cc1ccc(-c2c(OCCC3CCCCN3)c3cc(NC(=O)NC4CC4)c(Cl)cc3[nH]c2=O)cc1C` (stereo not drawn), the IC50 in experiment [1] is 6 nM.
The same measure, in the same setting: under `Cc1cccc(-c2c(OCCC3CCCCN3)c3cc(NC(=O)NC4CC4)c(Cl)cc3[nH]c2=O)c1` (stereo not drawn) stands 23 nM.
Still for that read-out and setting: under `Cc1cc(C)cc(-c2c(O)nc3cc(Cl)c(NC(=O)Nc4ccncc4)cc3c2OCCC2CCCCN2)c1` (stereo not drawn) stands 40 nM.
As to `Cc1cc(C)cc(-c2c(O)nc3cc(Cl)c(NC(=O)Nc4cnccn4)cc3c2OCCC2CCCCN2)c1` (stereo not drawn), the values for the half-maximal inhibitory concentration (IC50) in experiment [1], in experiment [2] and in experiment [5] were 0.3 nM, 56 nM and 9 nM, respectively.
For the compound `Cc1cc(C)cc(-c2c(OCCC3CCCCN3)c3cc(NC(=O)Nc4ccncn4)c(Cl)cc3[nH]c2=O)c1` (stereo not drawn), the IC50 is 0.6 nM in experiment [1]; 235 nM and 52 nM in experiment [2]; 0.4 nM in experiment [4].
